Experimental data reported in patent US10941158B2, “Pyrazole ACC inhibitors and uses thereof” (Gilead Apollo, LLC, priority 2015, dated 2021).
Converted amounts (≈) assume the structure as drawn. Like-named read-outs stand apart in the source and are kept apart here.

Assays:
[1] = test system: Fusarium moniliforme (Fm); experiment: Growth inhibition assay of fungal pathogens; assay type: cell-based; conditions: for IC90: Fusarium verticillioides, 48 h, read-out: Concentration at 90% Inhibition Fm
Protocol: (§1) Compounds of the present invention were evaluated in a growth inhibition assay to determine the ability to control the growth of fungal pathogens, such as Botrtyis cinerea (Bc), Collectotrichum graminicola (Cg). Diplodia maydis (Dm), Fusarium moniliforme (Fm), Fusarium virguliforme (Fv), Phytophthora capsici (Pc), Rhizoctonia solani (Rs), and Septoria tritici (St). Compounds to be tested were dissolved in DMSO at 2.5 mg/ml to produce compound stock solutions (“stocks”). Stocks were diluted with DMSO by a five-fold dilution in a 96-well stock plate, and two sets of final concentrations of 50, 10, and 2 ppm or 2, 0.4, and 0.08 ppm were obtained in vitro. A set of positive controls was also prepared, with various concentrations of Soraphen (2, 0.4, and 0.08 ppm), Metalaxyl (1.1, 0.22, and 0.04 ppm), and Metconazole (2, 0.4, and 0.08 ppm or 0.2, 0.04, and 0.008 ppm) after the five-fold dilutions. Negative controls on each plate included 2% DMSO, water, and a blank (media+2% DMSO). Fungal spores were isolated from previously sub-cultured plates of Botrtyis cinerea (Bc). Collectotrichum graminicola (Cg). Diplodia maydis (Dm), Fusarium moniliforme (Fm), Fusarium virguliforme (Fv), Phytophthora capsici (Pc), and Septoria tritici (St). The isolated spores were diluted to individual concentrations with a 17% V8 liquid media. For Rhizoctonia solani (Rs) and Pythium irregulare, 1.5 mm mycelial plugs were used in place of spores and ¼ Potato Dextrose Broth (PDB) was used for dilution. The spore concentrations and plug sizes were based on growth curves generated at 48 hours for each pathogen. In a second 96-well plate, the spores or mycelial plugs, media, diluted compound solutions, and controls were combined. Once the compound was added, a true final concentration of compound in each well was measured by an OD600 reading, which adjusted for any compound precipitation that might have occurred in the well. Plate readings were repeated at both 24 and 48 hours. The blank negative control was used as a background subtraction. Additional visual ratings were performed at both 24 and 48 hours for checking on precipitation and confirming efficacy. Visual and OD600 ratings of the compounds at 48 hours were compared to the 2% DMSO negative control, and the percent of pathogen growth inhibition was determined based on those values.

Septoria tritici (St) = experiment: Growth inhibition assay of fungal pathogens; assay type: cell-based; conditions: for IC90: Zymoseptoria tritici, read-out: Concentration at 90% Inhibition St
Protocol: as §1

[2] = test system: Fusarium virguliforme (Fv); experiment: Growth inhibition assay of fungal pathogens; assay type: cell-based; conditions: 48 h
Protocol: as §1

Botrtyis cinerea (Bc) = experiment: Growth inhibition assay of fungal pathogens; assay type: cell-based; conditions: 48 h, read-out: Concentration at 90% Inhibition Bc
Protocol: as §1

[3] = test system: Phytophthora capsici (Pc); experiment: Growth inhibition assay of fungal pathogens; assay type: cell-based; conditions: for IC90: Phytophthora capsici, read-out: Concentration at 90% Inhibition Pc
Protocol: as §1

[4] = test system: Collectotrichum graminicola (Cg); experiment: Growth inhibition assay of fungal pathogens; assay type: cell-based; conditions: 48 h, read-out: Concentration at 90% Inhibition Cg
Protocol: as §1

Diplodia maydis (Dm) = experiment: Growth inhibition assay of fungal pathogens; assay type: cell-based; conditions: Stenocarpella maydis, 48 h, read-out: Concentration at 90% Inhibition Dm
Protocol: as §1

Rhizoctonia solani (Rs) = experiment: Growth inhibition assay of fungal pathogens; assay type: cell-based; conditions: 48 h, read-out: Concentration at 90% Inhibition Rs
Protocol: as §1

human (hACC2) ACC2 = human (hACC2) ACC2 (Homo sapiens, UniProt O00763); experiment: In vitro Acetyl-CoA Carboxylase (ACC) inhibition assay (ADP-Glo), hACC2; assay type: biochemical
Chain of human (hACC2) ACC2 (O00763 whole entry): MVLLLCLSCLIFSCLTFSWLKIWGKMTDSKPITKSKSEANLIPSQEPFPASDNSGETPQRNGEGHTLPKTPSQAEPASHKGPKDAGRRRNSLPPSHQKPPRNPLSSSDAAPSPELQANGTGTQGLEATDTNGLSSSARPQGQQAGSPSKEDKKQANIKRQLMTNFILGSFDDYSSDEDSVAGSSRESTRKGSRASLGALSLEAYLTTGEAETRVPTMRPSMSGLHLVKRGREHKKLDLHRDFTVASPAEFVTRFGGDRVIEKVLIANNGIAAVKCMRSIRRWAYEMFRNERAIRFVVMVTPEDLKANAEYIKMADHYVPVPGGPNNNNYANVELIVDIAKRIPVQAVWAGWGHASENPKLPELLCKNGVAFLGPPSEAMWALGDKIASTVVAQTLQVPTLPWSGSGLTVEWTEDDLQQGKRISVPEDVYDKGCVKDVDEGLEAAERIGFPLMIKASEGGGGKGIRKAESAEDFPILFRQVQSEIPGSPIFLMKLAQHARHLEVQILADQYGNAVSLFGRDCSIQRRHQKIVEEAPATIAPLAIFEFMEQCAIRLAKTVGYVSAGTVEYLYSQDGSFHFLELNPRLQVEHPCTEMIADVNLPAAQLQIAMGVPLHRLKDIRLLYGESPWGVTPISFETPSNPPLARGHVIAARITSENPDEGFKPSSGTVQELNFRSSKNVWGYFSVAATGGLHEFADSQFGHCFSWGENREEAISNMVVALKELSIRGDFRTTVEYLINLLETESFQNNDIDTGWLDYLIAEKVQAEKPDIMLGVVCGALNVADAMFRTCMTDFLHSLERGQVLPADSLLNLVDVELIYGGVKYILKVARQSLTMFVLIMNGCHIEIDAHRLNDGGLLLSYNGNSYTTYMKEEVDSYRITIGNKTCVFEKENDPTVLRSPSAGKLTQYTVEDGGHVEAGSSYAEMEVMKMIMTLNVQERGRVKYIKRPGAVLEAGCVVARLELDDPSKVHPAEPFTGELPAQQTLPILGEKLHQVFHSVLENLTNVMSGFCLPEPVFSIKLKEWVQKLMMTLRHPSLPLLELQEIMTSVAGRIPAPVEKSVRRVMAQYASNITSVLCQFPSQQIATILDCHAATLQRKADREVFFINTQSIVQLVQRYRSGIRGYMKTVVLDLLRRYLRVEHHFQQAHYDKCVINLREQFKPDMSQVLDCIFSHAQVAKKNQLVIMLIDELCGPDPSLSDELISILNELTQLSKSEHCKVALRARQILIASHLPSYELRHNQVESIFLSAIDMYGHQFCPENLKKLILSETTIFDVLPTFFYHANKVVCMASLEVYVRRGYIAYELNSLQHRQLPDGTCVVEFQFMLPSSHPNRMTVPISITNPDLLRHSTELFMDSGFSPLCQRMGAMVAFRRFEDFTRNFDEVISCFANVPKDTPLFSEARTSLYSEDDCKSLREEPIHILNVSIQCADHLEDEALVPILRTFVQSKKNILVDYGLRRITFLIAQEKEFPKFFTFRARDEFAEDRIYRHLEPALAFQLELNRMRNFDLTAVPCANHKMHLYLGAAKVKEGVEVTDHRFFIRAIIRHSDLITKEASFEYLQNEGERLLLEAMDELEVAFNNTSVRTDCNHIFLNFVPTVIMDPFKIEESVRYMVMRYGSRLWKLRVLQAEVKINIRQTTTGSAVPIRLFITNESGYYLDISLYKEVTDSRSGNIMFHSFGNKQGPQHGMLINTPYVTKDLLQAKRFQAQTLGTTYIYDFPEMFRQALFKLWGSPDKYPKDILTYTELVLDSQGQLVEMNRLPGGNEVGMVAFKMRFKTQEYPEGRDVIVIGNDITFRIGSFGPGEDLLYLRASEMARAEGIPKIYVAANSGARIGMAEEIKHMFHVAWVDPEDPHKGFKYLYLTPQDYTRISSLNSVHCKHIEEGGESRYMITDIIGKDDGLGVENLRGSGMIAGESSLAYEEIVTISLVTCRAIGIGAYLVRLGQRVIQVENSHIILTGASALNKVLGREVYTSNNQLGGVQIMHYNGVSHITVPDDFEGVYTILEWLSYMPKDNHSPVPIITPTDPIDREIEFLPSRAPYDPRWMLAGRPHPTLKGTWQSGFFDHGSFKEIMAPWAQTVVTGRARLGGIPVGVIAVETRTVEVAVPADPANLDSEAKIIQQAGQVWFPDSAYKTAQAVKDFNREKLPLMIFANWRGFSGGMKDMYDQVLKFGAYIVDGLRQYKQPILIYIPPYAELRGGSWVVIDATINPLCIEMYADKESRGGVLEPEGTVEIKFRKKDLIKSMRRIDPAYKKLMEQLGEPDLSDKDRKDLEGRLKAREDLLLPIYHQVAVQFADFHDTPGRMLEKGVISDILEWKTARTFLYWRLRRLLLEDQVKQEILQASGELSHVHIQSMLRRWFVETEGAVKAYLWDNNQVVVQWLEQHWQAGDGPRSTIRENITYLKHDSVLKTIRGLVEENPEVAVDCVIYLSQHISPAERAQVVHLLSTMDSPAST
Protocol: The detailed procedure is as follows. […] 10 μL ADP glo reagent was added. […] 20 μL kinase detection reagent was added.
“NA” stands for “not assayed.”

[5] = test system: C. parapsilosis ATCC 22019; experiment: Anti-Fungal (Candida) Activity Assay, broth microtiter MIC; assay type: cell-based; conditions: Lodderomyces parapsilosis, read-out: MIC C. parapsilosis ATCC 22019
Protocol: (§2) Compounds of the present invention were evaluated in an Anti-Fungal Activity Assay. An exemplary procedure for the assay, which measures the susceptibility of various Candida species to anti-fungal compounds, follows. Compounds to be tested (including fluconazole and amphotericin B) were dissolved in DMSO to obtain a solution having a concentration of 1 mg/mL. […] All species were grown from frozen stock by directly plating on to freshly prepared Sabouraud Dextrose agar (BD, Difco) and incubated overnight in ambient air at 35° C. for 24 h. A direct suspension was prepared in RPMI 1640+MOPS (Lonza, Biowhittaker) by taking individual colonies from the overnight cultures using sterile swabs soaked in sterile saline. The concentration of the suspension was determined using pre-determined standard curves. […] Broth microtiter MIC challenge plates were prepared following CLSI guidelines (M27-A3, Vol. 28 No. 14). The original CLSI guidelines focused on reading Candida MICs after 48 h of incubation. As reading after only 24 h offers a clear advantage of patient care, QC limits are being established for all drugs at 24 h. That being said there are no known interpretive breakpoints for amphotericin B at 24 h and the current fluconazole interpretive breakpoints are based on a 48 h reading. The MIC for the test compounds were recorded at 48 h. All MIC determinations were achieved by visually comparing the growth found in the antibiotic challenged wells to that of the growth control.

C. albicans ATCC 90028 = experiment: as above; assay type: cell-based; conditions: read-out: MIC C. albicans ATCC 90028
Protocol: as §2

C. krusei ATCC 6258 = experiment: as above; assay type: cell-based; conditions: Pichia kudriavzevii, read-out: MIC C. krusei ATCC 6258
Protocol: as §2

[6] = read-out: Concentration at 90% Inhibition Fv, Table 4a, 48 hours
[7] = read-out: Concentration at 90% Inhibition Fv, Table 4b, 48 hours
[8] = Table 4a, 48 hours, read-out: Concentration at 90% Inhibition Fv
[9] = Table 4b, 48 hours, read-out: Concentration at 90% Inhibition Fv
[10] = ATCC22019, 3 replicates, MIC recorded at 48 h
[11] = ATCC90028, 3 replicates, MIC recorded at 48 h
[12] = ATCC6258, 3 replicates, MIC recorded at 48 h

SMILES | IC90 [1] [µg/mL] | Concentration at 90% Inhibition Fm ([1]; Table 4b, 48 hours) | IC90 (Septoria tritici (St); 48 h, Table 4a) [µg/mL] | IC90 (Septoria tritici (St); 48 h, Table 4b) [µg/mL] | IC90 [2, 6] [µg/mL] | IC90 [2, 7] [µg/mL] | IC90 (Botrtyis cinerea (Bc); Table 4a) [µg/mL] | IC90 (Botrtyis cinerea (Bc); Table 4b) [µg/mL] | IC90 ([3]; 48 h, Table 4a) [µg/mL] | IC90 ([3]; 48 h, Table 4b) [µg/mL] | IC90 ([4]; Table 4a) [µg/mL] | IC90 ([4]; Table 4b) [µg/mL] | IC90 (Diplodia maydis (Dm); Table 4a) [µg/mL] | IC90 (Diplodia maydis (Dm); Table 4b) [µg/mL] | IC90 (Rhizoctonia solani (Rs); Table 4a) [µg/mL] | IC90 (Rhizoctonia solani (Rs); Table 4b) [µg/mL] | IC50 (human (hACC2) ACC2) [nM] | MIC ([5]; ATCC22019, 48 h) [µg/mL] | MIC (C. albicans ATCC 90028; ATCC90028, 48 h) [µg/mL] | MIC (C. krusei ATCC 6258; ATCC6258, 48 h) [µg/mL] | also measured
COc1ccc(F)cc1[C@H](Cn1c(=O)n(C(C)(C)C(=O)NC(C)C)c(=O)c2c(C)c(-n3cccn3)sc21)OC1CCOCC1 [Compound I-6, (R)-2-(1-(2-(5-fluoro-2-methoxyphenyl)-2-((tetrahydro-2H-pyran-4-yl)oxy)ethyl)-5-methyl-2,4-dioxo-6-(1H-pyrazol-1-yl)-1,4-dihydrothieno[2,3-d]pyrimidin-3(2H)-yl)-N-isopropyl-2-methylpropanamide] | 0.4 (≈ 0.637 µM) | A (“A” provided a compound concentration of 0.4 ppm at 90% inhibition of fungal pathogens) | > 50 | > 50 | 2 (≈ 3.19 µM) | 2 (≈ 3.19 µM) | 2 (≈ 3.19 µM) | 2 (≈ 3.19 µM) | > 50 | > 50 | 10 (≈ 15.9 µM) | 2 (≈ 3.19 µM) | 10 (≈ 15.9 µM) | 2 (≈ 3.19 µM) | > 50 | 10 (≈ 15.9 µM) | 10 to 40 | 1.1 to 2 (≈ 1.75 to 3.19 µM) | 0.25 to 1 (≈ 0.398 to 1.59 µM) | 0.25 to 1 (≈ 0.398 to 1.59 µM) | –
COc1ccc(F)cc1[C@H](Cn1c(=O)n(C(C)(C)C(=O)N2CCCC2)c(=O)c2c(C)c(-n3cccn3)sc21)OC1CCOCC1 [Compound I-7, (R)-1-(2-(5-fluoro-2-methoxyphenyl)-2-((tetrahydro-2H-pyran-4-yl)oxy)ethyl)-5-methyl-3-(2-methyl-1-oxo-1-(pyrrolidin-1-yl)propan-2-yl)-6-(1H-pyrazol-1-yl)thieno[2,3-d]pyrimidine-2,4(1H,3H)-dione] | – | – | – | – | – | – | 2 (≈ 3.13 µM) | 2 (≈ 3.13 µM) | – | – | 0.4 (≈ 0.625 µM) | 0.4 (≈ 0.625 µM) | 10 (≈ 15.6 µM) | 2 (≈ 3.13 µM) | 2 (≈ 3.13 µM) | 2 (≈ 3.13 µM) | 3 to 10 | – | – | – | IC90 ([1]; Table 4a, 48 hours): 0.08 µg/mL (≈ 0.125 µM); IC90 ([1]; Table 4b, 48 hours): 0.08 µg/mL (≈ 0.125 µM); Concentration at 90% Inhibition St (Septoria tritici (St); Table 4b, 48 hours): D (“D” provided a compound concentration of >50 ppm at 90% inhibition of fungal pathogens); IC90 (Septoria tritici (St); Table 4a, 48 hours): > 50 µg/mL; IC90 [2, 8]: > 50 µg/mL; IC90 [2, 9]: 10 µg/mL (≈ 15.6 µM); IC90 ([3]; Table 4a, 48 hours): > 50 µg/mL; Concentration at 90% Inhibition Pc ([3]; Table 4b, 48 hours): D (“D” provided a compound concentration of >50 ppm at 90% inhibition of fungal pathogens); MIC [5, 10]: 1.1 to 2 µg/mL (≈ 1.72 to 3.13 µM); MIC (C. albicans ATCC 90028; [11]): 1.1 to 2 µg/mL (≈ 1.72 to 3.13 µM); MIC (C. krusei ATCC 6258; [12]): 0.25 to 1 µg/mL (≈ 0.391 to 1.56 µM)
COc1ccc(F)cc1[C@H](Cn1c(=O)n(C(C)(C)C(=O)N2CCCCC2)c(=O)c2c(C)c(-n3cccn3)sc21)OC1CCOCC1 [Compound I-8, (R)-1-(2-(5-fluoro-2-methoxyphenyl)-2-((tetrahydro-2H-pyran-4-yl)oxy)ethyl)-5-methyl-3-(2-methyl-1-oxo-1-(piperidin-1-yl)propan-2-yl)-6-(1H-pyrazol-1-yl)thieno[2,3-d]pyrimidine-2,4(1H,3H)-dione] | 0.08 (≈ 0.122 µM) | AA (“AA” provided a compound concentration of 0.08 ppm at 90% inhibition of fungal pathogens) | > 50 | > 50 | 2 (≈ 3.06 µM) | 2 (≈ 3.06 µM) | 2 (≈ 3.06 µM) | 2 (≈ 3.06 µM) | > 50 | > 50 | 2 (≈ 3.06 µM) | 2 (≈ 3.06 µM) | 10 (≈ 15.3 µM) | 2 (≈ 3.06 µM) | > 50 | 10 (≈ 15.3 µM) | 10 to 40 | 0.25 to 1 (≈ 0.382 to 1.53 µM) | 0.25 to 1 (≈ 0.382 to 1.53 µM) | 0.25 to 1 (≈ 0.382 to 1.53 µM) | –
COc1ccccc1[C@H](Cn1c(=O)n(C(C)(C)C(=O)NC(C)C)c(=O)c2c(C)c(-n3cccn3)sc21)OC1CCOCC1 [Compound I-11, (R)—N-isopropyl-2-(1-(2-(2-methoxyphenyl)-2-((tetrahydro-2H-pyran-4-yl)oxy)ethyl)-5-methyl-2,4-dioxo-6-(1H-pyrazol-1-yl)-1,4-dihydrothieno[2,3-d]pyrimidin-3(2H)-yl)-2-methylpropanamide] | 2 (≈ 3.28 µM) | B (“B” provided a compound concentration of 2.0 ppm at 90% inhibition of fungal pathogens) | > 50 | > 50 | > 50 | 10 (≈ 16.4 µM) | > 50 | 10 (≈ 16.4 µM) | > 50 | > 50 | > 50 | 10 (≈ 16.4 µM) | > 50 | 10 (≈ 16.4 µM) | > 50 | > 50 | 10 to 40 | > 4.1 | > 4.1 | > 4.1 | –
COc1ccccc1[C@H](Cn1c(=O)n(C(C)(C)C(=O)N2CCCC2)c(=O)c2c(C)c(-n3cccn3)sc21)OC1CCOCC1 [Compound I-12, (R)-1-(2-(2-methoxyphenyl)-2-((tetrahydro-2H-pyran-4-yl)oxy)ethyl)-5-methyl-3-(2-methyl-1-oxo-1-(pyrrolidin-1-yl)propan-2-yl)-6-(1H-pyrazol-1-yl)thieno[2,3-d]pyrimidine-2,4(1H,3H)-dione] | – | – | – | – | – | – | > 50 | 10 (≈ 16.1 µM) | – | – | 10 (≈ 16.1 µM) | 2 (≈ 3.22 µM) | > 50 | 10 (≈ 16.1 µM) | 2 (≈ 3.22 µM) | 2 (≈ 3.22 µM) | 3 to 10 | – | – | – | IC90 ([1]; Table 4a, 48 hours): 0.4 µg/mL (≈ 0.643 µM); IC90 ([1]; Table 4b, 48 hours): 0.4 µg/mL (≈ 0.643 µM); Concentration at 90% Inhibition St (Septoria tritici (St); Table 4b, 48 hours): D (“D” provided a compound concentration of >50 ppm at 90% inhibition of fungal pathogens); IC90 (Septoria tritici (St); Table 4a, 48 hours): > 50 µg/mL; IC90 [2, 8]: > 50 µg/mL; IC90 [2, 9]: 10 µg/mL (≈ 16.1 µM); IC90 ([3]; Table 4a, 48 hours): > 50 µg/mL; Concentration at 90% Inhibition Pc ([3]; Table 4b, 48 hours): D (“D” provided a compound concentration of >50 ppm at 90% inhibition of fungal pathogens); MIC [5, 10]: > 4.1 µg/mL; MIC (C. albicans ATCC 90028; [11]): 2.1 to 4 µg/mL (≈ 3.38 to 6.43 µM); MIC (C. krusei ATCC 6258; [12]): 2.1 to 4 µg/mL (≈ 3.38 to 6.43 µM)
